{"source": "patent US20240016763A1", "about": "“COENZYME Q10 MICROEMULSION, PREPARATION METHOD THEREFOR AND USE THEREOF” (ZHEJIANG NHU CO., LTD., priority 2021, published 2024)", "key": {"[1]": {"test": "Test of bioavailability: plasma concentration in rats after intragastric administration", "assay_type": "in vivo", "details": "mean±SD, n=10", "procedure": "Preparation of coenzyme Q10 raw material sample solution: 0.1 g of coenzyme Q10 crystal is accurately weighed and dissolved in 100 mL of diethylene glycol monoethyl ether solution, as a raw material sample.\nMicroemulsion samples of Examples 1 to 6, coded as Sample 1, Sample 2, Sample 3, Sample 4, Sample 5 and Sample 6, are selected to conduct animal experiments.\nExperimental conditions: the temperature of the laboratory feeding environment is 25±3° C., the relative humidity is 55% to 70%, the animals are free to drink water and eat food (deionized water and standard feed) every day, and they are fasted for 12 hours before the experiment but drink water freely.\nExperimental animals and grouping: seventy 8-week-old healthy SPF-grade male SD rats, provided by Hubei Experimental Animal Research Center, weighing from 220 g to 230 g.\nThe rats are operated according to the international experimental guidelines for experimental animals, and every 10 rats fasted for 12 hours are divided into one group by a completely random design, totally seven groups.\nOral administration, sample collection and treatment: the rats are intragastrically administered with the same dose (15 mg/kg: coenzyme Q10 content) of microemulsion samples 1 to 6 and raw material samples, respectively. After administration, plasma is collected at 5 minutes, 15 minutes, 30 minutes, 1 hour, 3 hours, 6 hours, 10 hours and 15 hours, respectively, and put into anticoagulant centrifuge tubes containing heparin, mixed uniformly and then centrifuged to separate the plasma. After the treatment, the plasma concentration is detected by HPLC.\nAccording to the results of the plasma concentration, statistical fitting analysis is carried out by using statistical analysis software, to calculate the plasma concentration. The results is expressed as mean value±standard deviation."}, "[2]": {"test": "Test of stability: irradiation at 4500 Lx light intensity, 15 days", "assay_type": "physicochemical", "details": "4500 Lx illumination", "source_text": "(§1) The coenzyme Q10 microemulsion is quickly poured into a transparency meter barrel, and an inspector observes vertically downward from the barrel mouth of the transparency meter, and slowly releases the microemulsion just to a height of the microemulsion where the type at the bottom can be clearly recognized. The height of the microemulsion is the transparency of the coenzyme Q10 microemulsion, which is generally more than 30 cm to be transparent. The measurement is repeated for 3 times, and the results are averaged.\n(§2) Microemulsion samples and coenzyme Q10 raw material are placed in the conditions of irradiation at 4500 Lx light intensity, oxygen filling (25° C.) and 60° C. (incubator) for 15 days, respectively, for experiments. In these experiments, samples are taken on day 0, day 5, day 10 and day 15, respectively, and the content of coenzyme Q10 is determined by HPLC, to investigate the effects of light, oxygen and temperature on the labeled content (%) of coenzyme Q10 and the appearance.\n(§3) Refer to the test method of coenzyme Q10 content in Chinese Pharmacopoeia (2015 edition)."}, "[3]": {"test": "Test of particle size DV(90) (laser particle size distribution)", "assay_type": "physicochemical", "details": "sample diluted 1:20 with distilled water, 25° C.", "procedure": "The microemulsion sample is diluted with distilled water at a ratio of 1:20 and gently shaken to form a clear microemulsion. Then, the particle size distribution of the emulsion is measured by MASTERSIZER 3000 laser particle size distribution instrument (purchased from Malvern Company, UK) at 25° C."}, "[4]": {"test": "Test of stability: 60° C. (incubator), 15 days", "assay_type": "physicochemical", "source_text": "as §1, §2, §3"}, "[5]": {"test": "Test of stability: oxygen filling (25° C.), 15 days", "assay_type": "physicochemical", "source_text": "as §1, §2, §3"}}}
{"smiles": "COC1=C(OC)C(=O)C(C/C=C(\\C)CC/C=C(\\C)CC/C=C(\\C)CC/C=C(\\C)CC/C=C(\\C)CC/C=C(\\C)CC/C=C(\\C)CC/C=C(\\C)CC/C=C(\\C)CCC=C(C)C)=C(C)C1=O", "note": "[coenzyme Q10 raw material, coenzyme Q10]", "values": [{"measurement": "average plasma concentration", "setting": "[1]; intragastric 15 mg/kg coenzyme Q10, 5 minutes", "value": 12.1, "unit": "µg/L"}, {"measurement": "average plasma concentration", "setting": "[1]; intragastric 15 mg/kg coenzyme Q10, 15 minutes", "value": 21.3, "unit": "µg/L"}, {"measurement": "average plasma concentration", "setting": "[1]; intragastric 15 mg/kg coenzyme Q10, 30 minutes", "value": 49.3, "unit": "µg/L"}, {"measurement": "average plasma concentration", "setting": "[1]; intragastric 15 mg/kg coenzyme Q10, 1 hour", "value": 93.0, "unit": "µg/L"}, {"measurement": "average plasma concentration", "setting": "[1]; intragastric 15 mg/kg coenzyme Q10, 3 hours", "value": 110.4, "unit": "µg/L"}, {"measurement": "average plasma concentration", "setting": "[1]; intragastric 15 mg/kg coenzyme Q10, 6 hours", "value": 83.3, "unit": "µg/L"}, {"measurement": "average plasma concentration", "setting": "[1]; intragastric 15 mg/kg coenzyme Q10, 10 hours", "value": 37.6, "unit": "µg/L"}, {"measurement": "average plasma concentration", "setting": "[1]; intragastric 15 mg/kg coenzyme Q10, 15 hours", "value": 11.5, "unit": "µg/L"}, {"measurement": "Labeled content of coenzyme Q10", "setting": "[2]; 0 day", "value": 99, "unit": "%"}, {"measurement": "Labeled content of coenzyme Q10", "setting": "[2]; 5 days", "value": 95, "unit": "%"}, {"measurement": "Labeled content of coenzyme Q10", "setting": "[2]; 10 days", "value": 93, "unit": "%"}, {"measurement": "Labeled content of coenzyme Q10", "setting": "[2]; 15 days", "value": 88, "unit": "%"}, {"measurement": "DV(90)", "setting": "[3]", "value": 75000, "unit": "nm"}, {"measurement": "Labeled content of coenzyme Q10", "setting": "[4]; 0 day", "value": 99, "unit": "%"}, {"measurement": "Labeled content of coenzyme Q10", "setting": "[4]; 5 days", "value": 97, "unit": "%"}, {"measurement": "Labeled content of coenzyme Q10", "setting": "[4]; 10 days", "value": 95, "unit": "%"}, {"measurement": "Labeled content of coenzyme Q10", "setting": "[4]; 15 days", "value": 92, "unit": "%"}, {"measurement": "Labeled content of coenzyme Q10", "setting": "[5]; 0 day", "value": 99, "unit": "%"}, {"measurement": "Labeled content of coenzyme Q10", "setting": "[5]; 5 days", "value": 97, "unit": "%"}, {"measurement": "Labeled content of coenzyme Q10", "setting": "[5]; 10 days", "value": 95, "unit": "%"}, {"measurement": "Labeled content of coenzyme Q10", "setting": "[5]; 15 days", "value": 90, "unit": "%"}]}
